Assays:
[1] = system: SARS-CoV-2 (strain USA-WA1/2020); assay: SARS-CoV-2 antiviral assay (inhibition of CPE, neutral red); format: cell-based; conditions: SARS-COV2; for EC50: Severe acute respiratory syndrome coronavirus 2, inhibition of CPE by 50%
[2] = in vitro; conditions: dog
[3] = system: HuT-78 (T cell lymphoma) cells; assay: Anti-proliferative activity, HuT-78 (CellTiter-Glo); conditions: Homo sapiens, HuT78, 144 h
[4] = system: influenza A strain California/07/09 (H1N1)pdm09; assay: Influenza A antiviral assay (inhibition of CPE, neutral red); format: cell-based; conditions: for EC50: Influenza A virus, H1N1
[5] = system: Marburg virus (Angola strain) glycoprotein (rVSV-MARV-GP); assay: organism not typed; format: cell-based
[6] = target: T1, PIKFYVE (Homo sapiens, UniProt Q9Y2I7); assay: KINOMEscan Kinase Assay (Eurofins), PIKFYVE inhibitory activity; format: binding; conditions: for IC50: KINOMEscan; for inhibition at 0.005 µM: @ 5 nM
T1 construct: purchased Eurofins (KINOMEscan); host or cells: E. coli BL21-derived (T7 phage display) or HEK-293

[7] = system: SARS-CoV-2 (Delta strain B.1.617); assay: SARS-CoV-2 Delta antiviral assay (inhibition of CPE, neutral red); format: cell-based; conditions: SARS-COV2 (Delta)
[8] = system: Ebola virus (Mayinga strain) glycoprotein (rVSV-EBOV-GP); assay: microbe, parasite or virus in culture; format: cell-based
[9] = in vitro; conditions: African green monkey
[10] = system: JJN3 (multiple myeloma) cells; assay: Anti-proliferative activity, JJN3 (CellTiter-Glo); conditions: Homo sapiens, JJN-3, 144 h

T1 sequence (Q9Y2I7 whole entry): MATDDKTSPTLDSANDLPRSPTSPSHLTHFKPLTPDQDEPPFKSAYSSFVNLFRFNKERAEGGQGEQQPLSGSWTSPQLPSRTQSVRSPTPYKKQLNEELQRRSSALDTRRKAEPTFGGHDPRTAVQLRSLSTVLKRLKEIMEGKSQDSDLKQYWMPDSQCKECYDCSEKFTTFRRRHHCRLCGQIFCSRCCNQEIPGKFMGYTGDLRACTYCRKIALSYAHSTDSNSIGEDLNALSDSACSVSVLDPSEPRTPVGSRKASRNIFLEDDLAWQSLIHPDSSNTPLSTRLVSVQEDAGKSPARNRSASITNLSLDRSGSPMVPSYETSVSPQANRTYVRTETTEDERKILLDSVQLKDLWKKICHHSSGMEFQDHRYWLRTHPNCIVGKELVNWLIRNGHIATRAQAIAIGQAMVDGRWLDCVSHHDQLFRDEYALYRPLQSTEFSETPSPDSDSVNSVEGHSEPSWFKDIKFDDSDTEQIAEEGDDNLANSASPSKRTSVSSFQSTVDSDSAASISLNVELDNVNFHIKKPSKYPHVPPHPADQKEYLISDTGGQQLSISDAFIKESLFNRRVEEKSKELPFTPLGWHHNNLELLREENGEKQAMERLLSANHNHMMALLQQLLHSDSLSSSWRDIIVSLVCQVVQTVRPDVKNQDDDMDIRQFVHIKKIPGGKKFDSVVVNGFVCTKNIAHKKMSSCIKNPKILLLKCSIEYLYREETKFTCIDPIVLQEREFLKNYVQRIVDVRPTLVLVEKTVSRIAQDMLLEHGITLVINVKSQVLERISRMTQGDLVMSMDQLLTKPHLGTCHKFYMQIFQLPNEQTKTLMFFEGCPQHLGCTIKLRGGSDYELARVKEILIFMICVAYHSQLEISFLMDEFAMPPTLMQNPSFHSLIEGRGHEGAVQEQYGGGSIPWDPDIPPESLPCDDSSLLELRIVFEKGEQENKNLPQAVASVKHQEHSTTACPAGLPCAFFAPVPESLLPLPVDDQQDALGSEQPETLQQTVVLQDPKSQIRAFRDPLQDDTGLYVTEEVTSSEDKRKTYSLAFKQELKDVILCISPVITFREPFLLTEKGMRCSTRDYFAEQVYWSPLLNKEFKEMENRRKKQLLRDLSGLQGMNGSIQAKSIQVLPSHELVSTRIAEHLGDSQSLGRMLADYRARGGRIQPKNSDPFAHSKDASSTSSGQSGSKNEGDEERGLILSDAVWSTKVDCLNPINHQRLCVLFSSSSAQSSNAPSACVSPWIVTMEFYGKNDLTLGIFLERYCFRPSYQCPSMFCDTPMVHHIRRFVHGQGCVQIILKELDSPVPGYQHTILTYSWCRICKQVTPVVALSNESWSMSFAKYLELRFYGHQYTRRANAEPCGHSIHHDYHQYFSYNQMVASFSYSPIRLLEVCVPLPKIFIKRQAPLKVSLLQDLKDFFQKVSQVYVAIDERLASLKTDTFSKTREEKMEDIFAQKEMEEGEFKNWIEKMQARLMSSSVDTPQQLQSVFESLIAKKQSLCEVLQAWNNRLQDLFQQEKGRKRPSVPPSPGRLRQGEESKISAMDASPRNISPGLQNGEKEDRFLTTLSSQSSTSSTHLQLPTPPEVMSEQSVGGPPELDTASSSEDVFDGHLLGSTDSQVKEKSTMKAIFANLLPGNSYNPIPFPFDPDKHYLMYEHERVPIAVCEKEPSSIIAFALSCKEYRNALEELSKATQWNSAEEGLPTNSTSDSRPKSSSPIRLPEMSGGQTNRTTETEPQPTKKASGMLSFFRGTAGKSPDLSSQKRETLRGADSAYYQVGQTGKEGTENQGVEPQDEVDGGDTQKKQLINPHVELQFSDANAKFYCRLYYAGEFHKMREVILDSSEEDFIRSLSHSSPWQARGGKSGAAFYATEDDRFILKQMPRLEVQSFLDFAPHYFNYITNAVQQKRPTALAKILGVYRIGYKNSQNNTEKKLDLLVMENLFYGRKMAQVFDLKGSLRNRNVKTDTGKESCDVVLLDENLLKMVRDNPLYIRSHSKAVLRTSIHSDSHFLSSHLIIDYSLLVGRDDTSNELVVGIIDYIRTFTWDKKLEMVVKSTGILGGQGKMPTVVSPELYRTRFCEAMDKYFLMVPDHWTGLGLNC

SMILES | IC50 [6] [µM] | also measured
CCC(CC)COC(=O)[C@H](C)N[P@](=O)(OC[C@H]1O[C@@](C#N)(c2ccc3c(N)ncnn23)[C@H](O)[C@@H]1O)Oc1ccccc1 [remdesivir, reference compound] | – | EC50 [1]: 5.6 µM; CC50 [2]: > 100 µM
Cc1cccc(-c2ccn(-c3nc(N4CCOCC4)c4sc(CN5CCN(S(C)(=O)=O)CC5)cc4n3)n2)c1 [Ex. 2, 4-(6-((4-(methylsulfonyl)piperazin-1-yl)methyl)-2-(3-(m-tolyl)-1H-pyrazol-1-yl)thieno[3,2-d]pyrimidin-4-yl)morpholine] | < 0.001 | EC50 [3]: < 0.25 µM; Selectivity Index ([1]; CC50 divided by EC50): >150; EC50 [1]: < 1 µM; EC50 [4]: < 1 µM; Selectivity Index ([4]; Influenza A, CC50 divided by EC50): >150; Selectivity Index [5]: >15000; EC50 ([5]; Vero): < 0.2 µM; Selectivity Index ([7]; CC50 divided by EC50): >1000; EC50 ([7]; Severe acute respiratory syndrome coronavirus 2): < 3 µM; Selectivity Index [8]: >6000; EC50 ([8]; Zaire ebolavirus, Vero): < 0.5 µM; CC50 [9]: > 3000 µM; EC50 [10]: < 0.05 µM
NC(=O)c1ncn([C@@H]2O[C@H](CO)[C@@H](O)[C@H]2O)n1 [ribavirin, reference compound] | – | EC50 [4]: 3.8 µM; CC50 [2]: > 1000 µM
Cc1cccc(-c2ccn(-c3nc(N4CCOCC4)c4sc(CN5CCN(C)CC5)cc4n3)n2)c1 [Ex. 31, 4-(6-((4-methylpiperazin-1-yl)methyl)-2-(3-(m-tolyl)-1H-pyrazol-1-yl)thieno[3,2-d]pyrimidin-4-yl)morpholine] | 0.001 to 0.01 | –
Cc1cccc(-c2ccn(-c3nc(N4CCOCC4)c4sc(C(=O)N5CC[C@@H](N(C)C)C5)cc4n3)n2)c1 [Ex. 21, (R)-(3-(dimethylamino)pyrrolidin-1-yl)(4-morpholino-2-(3-(m-tolyl)-1H-pyrazol-1-yl)thieno[3,2-d]pyrimidin-6-yl)methanone] | < 0.001 | –
Cc1cccc(-c2ccn(-c3nc(N4CCOCC4)c4sc(C(=O)N5CCN(C)CC5)cc4n3)n2)c1 [Ex. 25, (4-methylpiperazin-1-yl)(4-morpholino-2-(3-(m-tolyl)-1H-pyrazol-1-yl)thieno[3,2-d]pyrimidin-6-yl)methanone] | < 0.001 | –
COC1(c2sc3c(N4CCOCC4)nc(-n4ccc(-c5cccc(C)c5)n4)nc3c2C)COC1 [Ex. 65, 4-(6-(3-methoxyoxetan-3-yl)-7-methyl-2-(3-(m-tolyl)-1H-pyrazol-1-yl)thieno[3,2-d]pyrimidin-4-yl)morpholine] | 0.001 to 0.01 | –
Cc1cccc(-c2ccn(-c3nc(N4CCOCC4)c4sc(C(C)N5CCC(N(C)C)CC5)cc4n3)n2)c1 (stereo not shown) [Ex. 17, N,N-dimethyl-1-(1-(4-morpholino-2-(3-(m-tolyl)-1H-pyrazol-1-yl)thieno[3,2-d]pyrimidin-6-yl)ethyl)piperidin-4-amine] | < 0.001 | –
Cc1cccc(-c2ccn(-c3nc(N4CCOCC4)c4nc(CN5CCN(S(C)(=O)=O)CC5)sc4n3)n2)c1 [Ex. 9, 4-(2-((4-(methylsulfonyl)piperazin-1-yl)methyl)-5-(3-(m-tolyl)-1H-pyrazol-1-yl)thiazolo[5,4-d]pyrimidin-7-yl)morpholine] | 0.001 to 0.01 | –
Cc1cccc(-c2ccn(-c3nc(N4CCOCC4)c4sc(C(=O)N5CCC(N(C)C)CC5)cc4n3)n2)c1 [Ex. 23, (4-(dimethylamino)piperidin-1-yl)(4-morpholino-2-(3-(m-tolyl)-1H-pyrazol-1-yl)thieno[3,2-d]pyrimidin-6-yl)methanone] | < 0.001 | –
Brc1ccn(-c2cc(N3CCOCC3)c3sc(CN4CCOCC4)cc3n2)n1 [Ex. 173, 4-(5-(3-Bromo-1H-pyrazol-1-yl)-2-(morpholinomethyl)thieno[3,2-b]pyridin-7-yl)morpholine] | – | inhibition at 0.005 µM [6]: 8%
Cc1cccc(-c2ccn(-c3cc(N4CCOCC4)c4nc(CN5CC[C@@H](N(C)C)C5)[nH]c4n3)n2)c1 [Ex. 41, (R)—N,N-dimethyl-1-((7-morpholino-5-(3-(m-tolyl)-1H-pyrazol-1-yl)-3H-imidazo[4,5-b]pyridin-2-yl)methyl)pyrrolidin-3-amine] | < 0.001 | –
Cc1cccc(-c2ccn(-c3nc(N4CCOCC4)c4sc(CN5CC[C@H](N(C)C)C5)cc4n3)n2)c1 [Ex. 19, (S)—N,N-dimethyl-1-((4-morpholino-2-(3-(m-tolyl)-1H-pyrazol-1-yl)thieno[3,2-d]pyrimidin-6-yl)methyl)pyrrolidin-3-amine] | < 0.001 | –
Cc1cccc(-c2ccn(-c3nc(N4CCOCC4)c4nc(CN5CCOCC5)[nH]c4n3)n2)c1 [Ex. 14, 4-((6-morpholino-2-(3-(m-tolyl)-1H-pyrazol-1-yl)-9H-purin-8-yl)methyl) morpholine] | 0.001 to 0.01 | –
Cc1cccc(-c2ccn(-c3nc(N4CCOCC4)c4nc(CN5CCC(C(C)(C)O)CC5)n(C)c4n3)n2)c1 [Ex. 62, 2-(1-((9-methyl-6-morpholino-2-(3-(m-tolyl)-1H-pyrazol-1-yl)-9H-purin-8-yl)methyl)piperidin-4-yl)propan-2-ol] | 0.001 to 0.01 | –
Cc1cccc(-c2ccn(-c3nc(N4CCOCC4)c4nc(C(C)N5CCN(S(C)(=O)=O)CC5)sc4n3)n2)c1 (stereo not shown) [Ex. 12, 4-(2-(1-(4-(methylsulfonyl)piperazin-1-yl)ethyl)-5-(3-(m-tolyl)-1H-pyrazol-1-yl)thiazolo[5,4-d]pyrimidin-7-yl)morpholine] | 0.001 to 0.01 | –
Cc1cccc(-c2ccn(-c3cc(N4CCOCC4)c4sc(CN5CCC(N(C)C)C(F)C5)cc4n3)n2)c1 (stereo not shown) [Ex. 69, 3-fluoro-N,N-dimethyl-1-((7-morpholino-5-(3-(m-tolyl)-1H-pyrazol-1-yl)thieno[3,2-b]pyridin-2-yl)methyl)piperidin-4-amine] | < 0.001 | –
Cc1cccc(-c2ccn(-c3nc(N4CCOCC4)c4sc(CN5CC[C@@H](N(C)C)C5)cc4n3)n2)c1 [Ex. 18, (R)—N,N-dimethyl-1-((4-morpholino-2-(3-(m-tolyl)-1H-pyrazol-1-yl)thieno[3,2-d]pyrimidin-6-yl)methyl)pyrrolidin-3-amine] | < 0.001 | –
Cc1cccc(-c2ccn(-c3nc(N4CCOCC4)c4sc(CN5CC(N(C)C)C5)cc4n3)n2)c1 [Ex. 32, N,N-dimethyl-1-((4-morpholino-2-(3-(m-tolyl)-1H-pyrazol-1-yl)thieno[3,2-d]pyrimidin-6-yl)methyl)azetidin-3-amine] | < 0.001 | –
Cc1cccc(-c2ccn(-c3nc(N4CCOCC4)c4sc(CN5CCC6(OCCO6)C(F)C5)cc4n3)n2)c1 (stereo not shown) [Ex. 50, 6-fluoro-8-((4-morpholino-2-(3-(m-tolyl)-1H-pyrazol-1-yl)thieno[3,2-d]pyrimidin-6-yl)methyl)-1,4-dioxa-8-azaspiro[4.5]decane] | 0.001 to 0.01 | –
Cc1cc(-c2ccn(-c3cc(N4CCOCC4)c4sc(CN5CCOCC5)cc4n3)n2)ccn1 [Ex. 190, 4-(5-(3-(2-Methylpyridin-4-yl)-1H-pyrazol-1-yl)-2-(morpholinomethyl)thieno[3,2-b]pyridin-7-yl) morpholine] | – | inhibition at 0.005 µM [6]: 5%
Cc1cccc(-c2ccn(-c3nc(N4CCOCC4)c4sc(-c5cnn(C)c5)cc4n3)n2)c1 [Ex. 37, 4-(6-(1-methyl-1H-pyrazol-4-yl)-2-(3-(m-tolyl)-1H-pyrazol-1-yl)thieno[3,2-d]pyrimidin-4-yl)morpholine] | < 0.001 | –
Cc1cccc(-c2ccn(-c3nc(N4CCOCC4)c4nc(CN5CCN(S(C)(=O)=O)CC5)[nH]c4n3)n2)c1 [Ex. 10, 4-(8-((4-(methylsulfonyl)piperazin-1-yl)methyl)-2-(3-(m-tolyl)-1H-pyrazol-1-yl)-9H-purin-6-yl)morpholine] | < 0.001 | –
Cc1cccc(-c2ccn(-c3nc(N4CCOCC4)c4nc(CN5CCN(S(C)(=O)=O)CC5)n(C)c4n3)n2)c1 [Ex. 57, 4-(9-methyl-8-((4-(methylsulfonyl)piperazin-1-yl)methyl)-2-(3-(m-tolyl)-1H-pyrazol-1-yl)-9H-purin-6-yl)morpholine] | 0.001 to 0.01 | –
CO[C@@H](C)c1cccc(-c2ccn(-c3cc(N4CCOCC4)c4sc(CN5CCOCC5)cc4n3)n2)c1 (single isomer, unassigned) [Ex. 212, 4-(5-(3-(3-(1-methoxyethyl)phenyl)-1H-pyrazol-1-yl)-2-(morpholinomethyl)thieno[3,2-b]pyridin-7-yl)morpholine] | – | inhibition at 0.005 µM [6]: 0%
Cc1cccc(-c2ccn(-c3cc(N4CCOCC4)c4nc(CN5CC[C@H](N(C)C)C5)[nH]c4n3)n2)c1 [Ex. 46, (S)—N,N-dimethyl-1-((7-morpholino-5-(3-(m-tolyl)-1H-pyrazol-1-yl)-3H-imidazo[4,5-b]pyridin-2-yl)methyl)pyrrolidin-3-amine] | < 0.001 | –
Cc1cccc(-c2ccn(-c3nc(N4CCOCC4)c4sc(C(=O)N5CC[C@@H](N(C)C)C5)c(C)c4n3)n2)c1 [Ex. 60, (R)-(3-(dimethylamino)pyrrolidin-1-yl)(7-methyl-4-morpholino-2-(3-(m-tolyl)-1H-pyrazol-1-yl)thieno[3,2-d]pyrimidin-6-yl)methanone] | 0.001 to 0.01 | –
Cc1cccc(-c2ccn(-c3nc(N4CCOCC4)c4sc(CN5CCC(N(C)C)C(F)C5)cc4n3)n2)c1 (stereo not shown) [Ex. 51, 3-fluoro-N,N-dimethyl-1-((4-morpholino-2-(3-(m-tolyl)-1H-pyrazol-1-yl)thieno[3,2-d]pyrimidin-6-yl)methyl)piperidin-4-amine] | < 0.001 | –

— patent US20230265103A1 (TME Therapeutics LLC, priority 2021, published 2023)
